Measurements reported in patent US9624170B2, “4-(piperrazin-1-yl)-pyrrolidin-2-one compounds as monoacylglycerol lipase (MAGL) inhibitors” (TAKEDA PHARMACEUTICAL COMPANY LIMITED, priority 2013, dated 2017).

target: T1, human MAGL (His-hMAGL) (Homo sapiens, UniProt Q99685); assay: Measurement of MAGL inhibitory activity by absorbance; assay type: biochemical; conditions: 10 μM test compound; substrate p-nitrophenyl acetate, absorbance at 405 nm
T1 construct: made in house; host or cells: Escherichia coli BL21(DE3)
T1 sequence (Q99685 1-303): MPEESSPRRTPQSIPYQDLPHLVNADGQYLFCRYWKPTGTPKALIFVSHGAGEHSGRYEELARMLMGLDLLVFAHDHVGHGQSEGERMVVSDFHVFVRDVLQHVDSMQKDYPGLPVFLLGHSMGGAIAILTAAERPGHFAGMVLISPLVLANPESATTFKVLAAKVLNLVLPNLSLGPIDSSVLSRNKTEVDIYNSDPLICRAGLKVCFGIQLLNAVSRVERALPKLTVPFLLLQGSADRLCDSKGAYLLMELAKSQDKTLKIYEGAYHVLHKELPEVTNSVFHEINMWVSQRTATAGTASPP
From the text: (1) Cloning of Human MGLL Encoding MAGL Protein and Construction of Expression Plasmid
Human MGLL cDNA was obtained by PCR using human ORF Clone (DNAForm; Clone ID: 100004585) as a template. For PCR, two kinds of primers: […]
The obtained PCR product was digested with Bam HI and Not I (Takara Bio Inc.), inserted into the Bam HI/Not I site of pET21HH(V) (pET21a (Novagen) inserted with His x6 and TEV Protease recognition sequence) by using Ligation High (Toyobo Co., Ltd.), and introduced into ECOS™ JM109 (Nippon Gene Co., Ltd.), whereby expression plasmid pET21HH(V)/His-hMGLLv2 for Escherichia coli was constructed. (2) Preparation of Recombinant Polyhistidine Tagged Human MAGL Protein
Recombinant His-hMAGL protein was prepared by transforming ECOS™ Competent E. coli BL21(DE3) (Nippon Gene Co., Ltd.) with the pET21HH(V)/His-hMGLLv2 plasmid prepared above. Escherichia coli obtained by transformation was inoculated to 10 mL of LB medium (1% peptone, 0.5% yeast extract, 0.5% sodium chloride, 0.01% ampicillin), and cultured at 30° C. for 16 hr. […] When the turbidity of the culture medium reached about 500 Klett unit, the culture temperature was lowered to 16° C., isopropyl-β-D-thiogalactopyranoside (IPTG) was added to a final concentration of 1 mM, and the mixture was further cultured for 19 hr. After the completion of culture, the culture medium was centrifuged (4° C., 6,000 rpm, 10 min) to give His-hMAGL expression Escherichia coli. Then, His-hMAGL expression Escherichia coli was suspended in 50 mM Tris-HCl (pH 8.0, 100 ml) containing 1% Triton X-100, 20 mM imidazole, 3 mM DTT, 5 U/mL Benzonase (Merck) and 150 mM NaCl, sufficiently cooled, and subjected to sonication at […]=60%, 15 sec/ON, 30 sec/OFF for 3 min using ¾″ solid type crushed horn of BRANSON Digital Sonifier 450 (Central Scientific Commerce, Inc.). Furthermore, the homogenate was centrifuged (4° C., 15,000 rpm, 15 min) and the supernatant was obtained. As the purification apparatus, AKTA explorer 10s (GE Healthcare Japan Corporation) was used at 4° C. To the obtained supernatant was added 5M NaCl to the final salt concentration of 0.3 M, and the mixture was flown through and adsorbed to 5 mL of Ni-NTA Superflow Cartridges (QIAGEN) equilibrated in advance with buffer A (50 mM Tris-HCl (pH 8.0) containing 0.05% TritonX-100, 1 mM DTT, 300 mM NaCl). The column was sufficiently washed with buffer A containing 20 mM imidazole and His-hMAGL was eluted with buffer A containing imidazole at a final concentration of 250 mM. The eluate was further subjected to gel filtration using HiLoad 26/600 Superdex 200 pg (GE Healthcare Japan Corporation) equilibrated with 50 mM Tris-HCl pH 8.0 containing 10% glycerol, 0.05% TritonX-100, 1 mM DTT, 150 mM NaCl. The eluted fraction was concentrated by Amicon Ultra-15 10K (Merck Millipore) to give purified His-hMAGL protein. The protein concentration was measured by BCA Protein Assay Kit (Thermo Fisher Scientific) using BSA as the standard.
(3) Measurement of MAGL Inhibitory Activity
His-hMAGL obtained above was diluted with enzyme reaction buffer (10 mM Tris-HCl, pH 7.5, 1 mM EDTA, 0.1 (w/v) % Triton X-100) to a concentration of 60 ng/mL. […] Thereafter, to each well was added 750 μM p-nitrophenyl acetate (Wako Pure Chemical Industries, Ltd.) by 5 μL, and the absorbance at 405 nm was measured every 2 minutes up to 10 minutes by EnVision (PerkinElmer). The amount of change was obtained by subtracting the absorbance measured immediately after the start of the reaction from the absorbance measured 10 min after the start of the reaction.
MAGL inhibitory rate (%) was calculated according to the following calculation formula. (1−(absorbance change amount of test compound addition group−absorbance change amount of enzyme addition-free group)[…](absorbance change amount of test compound addition-free group−absorbance change amount of enzyme addition-free group))×100

| Structure (SMILES) | inhibition at 10 µM [%] |
| --- | --- |
| O=C(c1cscn1)N1CCN(C2CC(=O)N(c3ccc(Oc4ccccc4)cc3)C2)CC1 (stereo not drawn) [Example 6, 1-(4-phenoxyphenyl)-4-(4-(1,3-thiazol-4-ylcarbonyl)piperazin-1-yl)pyrrolidin-2-one] | 93 |
| O=C(c1ccc(Cl)o1)N1CCN(C2CC(=O)N(c3ccc(Oc4ccccc4)cc3)C2)CC1 (stereo not drawn) [Example 8, 4-(4-(5-chloro-2-furoyl)piperazin-1-yl)-1-(4-phenoxyphenyl)pyrrolidin-2-one] | 93 |
| O=C(c1nccs1)N1CCN(C2CC(=O)N(c3ccc4c(ccn4-c4ccc(F)cc4)c3)C2)CC1 (stereo not drawn) [Example 14, 1-(1-(4-Fluorophenyl)-1H-indol-5-yl)-4-(4-(1,3-thiazol-2-ylcarbonyl)piperazin-1-yl)pyrrolidin-2-one] | 98 |
| O=C(c1nccs1)N1CCN(C2CC(=O)N(c3ccc(Oc4ccccc4)cn3)C2)CC1 (stereo not drawn) [Example 18, 1-(5-phenoxypyridin-2-yl)-4-(4-(1,3-thiazol-2-ylcarbonyl)piperazin-1-yl)pyrrolidin-2-one] | 96 |
| O=C(c1nccs1)N1CCN(C2CC(=O)N(c3ccc(Oc4ccncc4)cc3)C2)CC1 (stereo not drawn) [Example 19, 1-(4-(pyridin-4-yloxy)phenyl)-4-(4-(1,3-thiazol-2-ylcarbonyl)piperazin-1-yl)pyrrolidin-2-one] | 91 |
| O=C(c1nccs1)N1CCN(C2CC(=O)N(c3ccc4ccn(-c5ccc(F)cc5)c4c3)C2)CC1 (stereo not drawn) [Example 20, 1-(1-(4-fluorophenyl)-1H-indol-6-yl)-4-(4-(1,3-thiazol-2-ylcarbonyl)piperazin-1-yl)pyrrolidin-2-one] | 93 |
| O=C(c1nccs1)N1CCN(C2CC(=O)N(c3ccc(Cc4ccccc4)cc3)C2)CC1 (stereo not drawn) [Example 38, 1-(4-benzylphenyl)-4-(4-(1,3-thiazol-2-ylcarbonyl)piperazin-1-yl)pyrrolidin-2-one] | 99 |
| O=C(c1nccs1)N1CCN(C2CC(=O)N(c3ccc4[nH]ncc4c3)C2)CC1 (stereo not drawn) [Example 47, 1-(1H-indazol-5-yl)-4-(4-(1,3-thiazol-2-ylcarbonyl)piperazin-1-yl)pyrrolidin-2-one] | 96 |
| O=C(c1nccs1)N1CCN(C2CC(=O)N(c3ccc(C4CC4)cc3)C2)CC1 (stereo not drawn) [Example 57, 1-(4-Cyclopropylphenyl)-4-(4-(1,3-thiazol-2-ylcarbonyl)piperazin-1-yl)pyrrolidin-2-one] | 90 |
| O=C(c1nccs1)N1CCN(C2CC(=O)N(c3ccc(-c4ccc(Cl)cc4)cc3)C2)CC1 (stereo not drawn) [Example 63, 1-(4′-chlorobiphenyl-4-yl)-4-(4-(1,3-thiazol-2-ylcarbonyl)piperazin-1-yl)pyrrolidin-2-one] | 95 |

Continued, values first:

| inhibition at 10 µM [%] | Structure (SMILES) |
| --- | --- |
| 87 | N#Cc1cccnc1N1CCN(C2CC(=O)N(c3ccc(Oc4ccccc4)cc3)C2)CC1 (stereo not drawn) [Example 7, 2-(4-(5-Oxo-1-(4-phenoxyphenyl)pyrrolidin-3-yl)piperazin-1-yl)nicotinonitrile] |
| 98 | O=C(c1nccs1)N1CCN(C2CC(=O)N(c3ccc(Oc4ccc(F)c(F)c4)cc3)C2)CC1 (stereo not drawn) [Example 12, 1-(4-(3,4-difluorophenoxy)phenyl)-4-(4-(1,3-thiazol-2-ylcarbonyl)piperazin-1-yl)pyrrolidin-2-one] |
| 98 | COc1cc(Oc2ccccc2)ccc1N1CC(N2CCN(C(=O)c3nccs3)CC2)CC1=O (stereo not drawn) [Example 13, 1-(2-Methoxy-4-phenoxyphenyl)-4-(4-(1,3-thiazol-2-ylcarbonyl)piperazin-1-yl)pyrrolidin-2-one] |
| 69 | O=C(N1CCCC1)N1CCN(C2CC(=O)N(c3ccc(Oc4ccccc4)cc3)C2)CC1 (stereo not drawn) [Example 21, 1-(4-Phenoxyphenyl)-4-(4-(pyrrolidin-1-ylcarbonyl)piperazin-1-yl)pyrrolidin-2-one] |
| 97 | COc1ccc(Oc2ccc(N3CC(N4CCN(C(=O)c5nccs5)CC4)CC3=O)cc2)cc1 (stereo not drawn) [Example 22, 1-(4-(4-methoxyphenoxy)phenyl)-4-(4-(1,3-thiazol-2-ylcarbonyl)piperazin-1-yl)pyrrolidin-2-one] |
| 95 | O=C(c1cocn1)N1CCN(C2CC(=O)N(c3ccc(Oc4ccccc4)cc3)C2)CC1 (stereo not drawn) [Example 36, 4-(4-(1,3-oxazol-4-ylcarbonyl)piperazin-1-yl)-1-(4-phenoxyphenyl)pyrrolidin-2-one] |
| 97 | COc1cccc(Oc2ccc(N3CC(N4CCN(C(=O)c5nccs5)CC4)CC3=O)cc2)c1 (stereo not drawn) [Example 44, 1-(4-(3-methoxyphenoxy)phenyl)-4-(4-(1,3-thiazol-2-ylcarbonyl)piperazin-1-yl)pyrrolidin-2-one] |
| 97 | COc1ccccc1Oc1ccc(N2CC(N3CCN(C(=O)c4nccs4)CC3)CC2=O)cc1 (stereo not drawn) [Example 45, 1-(4-(2-methoxyphenoxy)phenyl)-4-(4-(1,3-thiazol-2-ylcarbonyl)piperazin-1-yl)pyrrolidin-2-one] |
| 97 | O=C(c1nccs1)N1CCN(C2CC(=O)N(c3cnc4c(ccn4-c4ccc(F)cc4)c3)C2)CC1 (stereo not drawn) [Example 51, 1-(1-(4-fluorophenyl)-1H-pyrrolo[2,3-b]pyridin-5-yl)-4-(4-(1,3-thiazol-2-ylcarbonyl)piperazin-1-yl)pyrrolidin-2-one] |
| 97 | O=C(c1nccs1)N1CCN(C2CC(=O)N(c3ccc4c(ccn4-c4ncc(C(F)(F)F)cn4)c3)C2)CC1 (stereo not drawn) [Example 52, 4-(4-(1,3-Thiazol-2-ylcarbonyl)piperazin-1-yl)-1-(1-(5-(trifluoromethyl)pyrimidin-2-yl)-1H-indol-5-yl)pyrrolidin-2-one] |
| 98 | O=C(c1nccs1)N1CCN(C2CC(=O)N(c3ccc4c(ccn4-c4ccc(C(F)(F)F)cn4)c3)C2)CC1 (stereo not drawn) [Example 53, 4-(4-(1,3-Thiazol-2-ylcarbonyl)piperazin-1-yl)-1-(1-(5-(trifluoromethyl)pyridin-2-yl)-1H-indol-5-yl)pyrrolidin-2-one] |
| 97 | O=C(c1nccs1)N1CCN(C2CC(=O)N(c3ccccc3OCc3ccccc3)C2)CC1 (stereo not drawn) [Example 58, 1-(2-(benzyloxy)phenyl)-4-(4-(1,3-thiazol-2-ylcarbonyl)piperazin-1-yl)pyrrolidin-2-one] |
| 98 | O=C(c1nccs1)N1CCN(C2CC(=O)N(c3ccc(OCc4ccccc4)cc3)C2)CC1 (stereo not drawn) [Example 60, 1-(4-(Benzyloxy)phenyl)-4-(4-(1,3-thiazol-2-ylcarbonyl)piperazin-1-yl)pyrrolidin-2-one] |

same assay, conditions: 10 μM test compound; substrate p-nitrophenyl acetate, absorbance at 405 nm; 10 µM

| Inhibition at 10 μM (%) | Structure (SMILES) |
| --- | --- |
| 99 | O=C(c1nccs1)N1CCN(C2CC(=O)N(c3ccc4c(ccn4-c4ccc(F)cc4)c3)C2)CC1 (stereo not drawn) [Example 23, 1-(1-(4-Fluorophenyl)-1H-indol-5-yl)-4-(4-(1,3-thiazol-2-ylcarbonyl)piperazin-1-yl)pyrrolidin-2-one (optical isomer)] |
